Entries after “also recorded” stand apart in the source; their conditions may differ.
Columns and labels:
[1] = tested on: Ramos cells; assay: ROS generation, carboxy-H2DCFDA probe, flow cytometry; format: cell-based
Protocol: In these experiments, we monitored the production of ROS using the cell permeable Carboxy-H2DCFDA probe. When this probe is oxidized by ROS, it emits a green fluorescence that can be detected using flow cytometry or fluorescent microscopy. […] 25 μM carboxy-H2DCFDA (Invitrogen. C400) working solution was added to cover the cells, and the cells were incubate for 30 minutes at 37° C., protected from light. The cells were gently washed three times in warm HBSS/Ca/Mg. ROS levels, as determined by fluorescence intensity, were determined by flow cytometry (excitation at 495 nm, emission at 529 nm).
(§1) Tiron is a direct scavenger of ROS and is a potent inhibitor of oxidative stress.
Ramos cells were treated with elesclomol (500 nM) for the indicated times then washed gently once with warm HBSS/Ca/Mg (Invitrogen Carlsbad, Calif. Cat# 14025). 25 μM carboxy-H2DCFDA (Invitrogen Cat #C400) working solution was added to cover the cells and they were incubated for 30 minutes at 37° C., protected from light. The cells were gently washed three times in warm HBSS/Ca/Mg. ROS levels (fluorescence intensity) were determined by flow cytometry (excitation at 495 nm, emission at 529 nm) using a Becton Dickinson FACSCalibur equipped with CellQuest Pro software. Data is plotted as percent of elesclomol-treated cells with DCFDA fluorescence relative to DMSO (control) treated cells (see FIG. 49).

[2] = tested on: MDA-MB-435 cells; assay: Cell viability (Cell Counting Kit-8); format: cell-based, human; settings: […] NAC, 500 nM Compound 1, 72 hours
Protocol: The cells were further cultured at 37° C. for 72 hours and cell viability was measured with Cell Counting Kit-8 (Dojindo Laboratories, Cat# CK04).

[3] = tested on: Hs294T (or MDA-MB-435) cells; assay: Affymetrix transcriptional profiling; format: cell-based, human; settings: Hs294T cells; NAC 5 mM 30 minutes prior to Compound 1 100 nM; 6 hours
Protocol: RNA was isolated from the cells 6 hours after treatment using the RNeasy kit according to the manufacturers instructions (Qiagen Cat. # 71404) and RNA quality was confirmed by spectrophotometric examination. cDNA was synthesized using the One-Cycle cDNA Synthesis Kit (Affymetrix Cat. # 900431) according to the manufacturers instructions. cDNA was labeled using the GeneChip IVT Labeling Kit (Affymetrix Cat. #900449) and analyzed in duplicate on the Affymetrix Human Genome U133Plus 2.0 gene chip array according to standard Affymetrix protocols. Data sheets from the Affymetrix Gene Chip Scanner 3000 were imported into Microsoft Excel and filtered by the following criteria: greater than or equal to 1.5 fold increase, greater than or equal to 0.4SE between replicates; and 50 (low stringency) or 500 (high stringency) for the lowest signal.
NAC is the rate-limiting amino acid for the production of the antioxidant glutathione. Addition of NAC to cells increases the levels of endogenous glutathione which in turn blocks oxidative stress and ROS generation. […] RNA was isolated from the cells 6 hours after treatment and Affymetrix analysis was performed as above.

[4] = tested on: Hsp70; assay: Hsp70 RNA induction, quantitative PCR, Hs294T cells; format: cell-based, human; settings: Compound 1 100 nM, 6 hours
Protocol: […] 500 ng of RNA from each sample was used for cDNA synthesis using iScript cDNA Synthesis Kit (Biorad, Cat# 170-8891). 1 uL of cDNA mixture was used with the iQ SYBR Green Supermix (Biorad, Cat# 170-8882) to perform quantitative PCR in an iCycler machine (Biorad) using standard protocols. QPCR for each sample/time point was performed in duplicate. The following primers for inducible human Hsp70 and gapdh were used:
Ct values were obtained from the iCycler program and used in an equation (2^−ΔΔCT) for determining the amount of target relative to gapdh expression. This compares the relative expression of Hsp70 to the corresponding levels of gapdh in each sample. Duplicate wells were averaged and graphed with their corresponding standard deviation.
Activation of HSF-1 by oxidative stress has been reported in the literature to require p38 kinase signaling in some cell lines.

[5] = tested on: HSB2 cells; assay: Apoptosis, Annexin V / propidium iodide FACS; format: cell-based; settings: for relative levels of apoptotic cells: agent alone, without Compound 1
Protocol: (§2) To confirm that the ability of NAC to block Compound 1-induced cell death was not cell-line specific, we examined the role of oxidative stress in two additional cell lines by FAC analysis. RAMOS and HSB2 cells (ATCC) were seeded in 6-well plates at 1×10^6 cells/well/4 mL and incubated at 37° C. for 4 hours. […] After incubation the cells were stained with Annexin V and propidium iodide (Vybrant Apoptosis assay kit, Cat# V13241, Invitrogen, Molecular Probes) for measuring apoptotic cells by FACS analysis.
The cells were harvested and stained with Annexin V and propidium iodide for measuring apoptotic cells by FACS analysis.

[6] = tested on: Ramos cells; assay: Apoptosis, Annexin V / propidium iodide FACS; format: cell-based; settings: 5 mM NAC
Protocol: as §2

[7] = in vivo
[8] = tested on: Stage 1V metastatic melanoma
Protocol: A phase II clinical trial was conducted in patients that had Stage 1V metastatic melanoma patients.
Patients were treated until progression of the disease. […] The tumor assessments were performed at baseline, Cycle 2, and every other Cycle thereafter.

[9] = tested on: HSB2 cells; assay: Apoptosis, Annexin V / propidium iodide FACS; format: cell-based; settings: p38 inhibitor 20 μM plus Compound 1 0.2 μM
[10] = tested on: MAPKAPK-2; assay: MAPKAPK-2 phosphorylation, Western blot, CEM and CV-1 cells; format: cell-based; settings: 20 μM SB203580, 0.1 or 0.5 μM Compound 1
Protocol: (§3) After treatment the cells were lysized and used for Western blot analysis.
(§4) Samples were run on a SDS-PAGE gel and proteins were transferred onto a nitrocellulose membrane by a semi-dry transfer. Nitrocellulose was blocked with 5% skim milk in TBS with 0.5% Tween at room temperature for 1 hour and then probed with anti-p-MAPKAPK-2 (Thr334) (#3041, Cell Signaling) antibody. Tubulin was used as a normalization control and was probed with Anti-Tubulin (T9026, Sigma) antibody.

[11] = tested on: MSK1; assay: MSK1 phosphorylation, Western blot, MDA-MB-435 cells; format: cell-based, human; settings: 20 μM SB203580, 0.1 or 0.5 μM Compound 1
Protocol: as §3
Samples were run on a SDS-PAGE gel and proteins were transferred onto a nitrocellulose membrane by a semi-dry transfer. Nitrocellulose was blocked with 5% skim milk in TBS with 0.5% Tween at room temperature for 1 hour and then probed with anti-p-MSK1 (Thr581) (#9595, Cell Signaling) antibody. The nitrocellulose was then probed with secondary antibodies, HRP-conjugated goat anti-rabbit IgG and HRP-conjugated horse anti-mouse IgG (#7074, #7076, Cell Signaling). LumiGLO reagent, 20× Peroxide (#7003, Cell Signaling) was used to visualize gel (see FIG. 36).
as §4, with “anti-p-MSK1 (Thr581) (#9595,” for “anti-p-MAPKAPK-2 (Thr334) (#3041,”

[12] = tested on: Hsp70; assay: Hsp70 induction by Compound 1 in the presence of Tiron; format: cell-based; settings: Tiron (FIG. 45)
Source text: as §1

[13] = tested on: cytochrome c and caspase 3; assay: Apoptotic markers, Western blot, Ramos cells; format: cell-based; settings: 100 nM
Protocol: Ramos cells were plated for 3 hours then treated with 100 nM elesclomol for the indicated times. To determine cytochrome c levels in the cytoplasm and mitochondria (a) Ramos cells were fractionated using the method detailed in (Hase et al, Journal of Biol. Chem. Vol. 277, pp. 46950-58, 2002) and western blots were probed with Cytochrome C primary antibody (BD Pharmingen, clone 7H8.2; C12). All Western blots were probed with secondary antibodies conjugated to HRP (Cell Signaling) and visualized using Lumiglo (Cell Signaling) peroxide reagents. Images were captured from the Kodak Image Station 440. For Caspase 3 analysis (b), whole cell lysates were isolated using 1× cell lysis buffer (Cell Signaling, Danvers, Mass.) plus protease inhibitors (Calbiochem, San Diego, Calif.). 30 ug of protein was run on a 4-12% Nupage gel (Invitrogen) and immunoblotted using standard procedures. The blots were probed with Caspase 3 antibody (9662) and cleaved Caspase 3 primary antibodies (9661) both from Cell Signaling.

[14] = RECIST, Efficacy Sample, patients (percent)

## CC(=O)N[C@@H](CS)C(=O)O [NAC, N-acetyl-cysteine, reference compound]
[1]; 1.0 mM or 10 mM NAC 1 hour prior to Compound 1 0.5 μM
  block of ROS generation by Compound 1: almost completely blocked the generation of ROS by Compound 1
[2]
  block of Compound 1-induced cell death: completely blocked the ability of Compound 1 to induce cell death
[3]
  effect of NAC on genes induced by Compound 1: inhibited the genes most robustly induced by Compound 1
[4]; 5 mM NAC
  inhibition of Hsp70 induction by Compound 1: complete inhibition in Hsp70 induction; also recorded: completely inhibited
[5]; NAC 5 mM alone
  early apoptotic cells: 11%
[5]
  relative levels of apoptotic cells: little or no effect
[6]
  inhibition of Compound 1-induced early apoptotic signaling: completed inhibited early apoptotic signaling

## CC(=O)O[C@H]1C(=O)[C@@]2(C)[C@H]([C@H](OC(=O)c3ccccc3)[C@]3(O)C[C@H](OC(=O)[C@H](O)[C@@H](NC(=O)c4ccccc4)c4ccccc4)C(C)=C1C3(C)C)[C@]1(OC(C)=O)CO[C@@H]1C[C@@H]2O [Paclitaxel, paclitaxel]
[7]
  dose limiting toxicities: dose limiting toxicities occurred in a single patient in each of the top three dose levels
[8]; RECIST, Efficacy Sample
  CR + PR (95% CI): 3.7% (0.1%,19.0%)
[8]; [14]
  Best Overall Response: Complete Response (CR): 0
  Best Overall Response: Partial Response (PR): 1 (3.7%)
  Best Overall Response: Progressive Disease (PD): 16 (59.3%)
[8]; Table 5
  number of patients with partial response: 1 patient
  patients with progressive disease: 59.3%
  patients with stable disease: 37%

## C[S+]([O-])c1ccc(-c2nc(-c3ccncc3)c(-c3ccc(F)cc3)[nH]2)cc1 (stereo not drawn) [SB203580, reference compound]
[9]
  effect of p38 inhibitor on apoptosis induced by Compound 1: did not effect induction of apoptosis by Compound 1
[10]
  block of Compound 1 induced phosphorylation of MAPKAPK-2: blocked
[4]; p38 inhibitor 20 uM
  inhibition of Hsp70 induction by Compound 1: robust decrease in Hsp70 induction
[5]
  relative levels of apoptotic cells: little or no effect
[11]
  block of Compound 1 induced phosphorylation of MSK1: blocked

## O=S(=O)(O)c1cc(O)c(O)c(S(=O)(=O)O)c1 [Tiron, reference compound]
[1]; 500 mM Tiron 1 hour prior to Compound 1 0.5 μM, 24 hours
  block of ROS generation by Compound 1: blocked the ability of Compound 1 to generate ROS
[12]
  block of induction of Hsp70 by Compound 1: blocks the induction of Hsp70 by Compound 1

## CN(NC(=O)CC(=O)NN(C)C(=S)c1ccccc1)C(=S)c1ccccc1 [elesclomol]
[1]; 500 nM, time course
  accumulation of ROS: induces accumulation of ROS in cells shortly after drug treatment
[13]
  time post treatment at which cytochrome c and caspase 3 start to be activated: 6 h

Source: US20090093538A1, “Method for treating cancer” (priority 2007, published 2009)
